In publication doi:10.1101/2025.06.30.662286v4 (biorxiv, 2026):
Where two headings read alike, the source gives them in different places.

Legend:
sc-apCC-4-SN38-1 [1] = assay: fluorescence saturation binding; parameters: species or system synthetic construct; details: ABS pH 4, 10% v/v DMSO, 1 μM SN38, 0-480 μM protein
[2] = molecular target: sc-apCC-6-DPH-NR (P, promiscuous binder); assay: fluorescence saturation binding; parameters: species or system synthetic construct; details: PBS pH 7.4, 10% v/v MeCN, 0.5 μM ligand, 0-60 μM protein
sc-apCC-4-NR-1 = assay: fluorescence intensity saturation binding; parameters: species or system synthetic construct; details: PBS pH 7.4, 10% v/v MeCN, 0.5 μM Nile red, 0-60 μM protein
[3] = molecular target: sc-apCC-6-NR (S, specific binder); assay: fluorescence saturation binding; parameters: species or system synthetic construct; details: PBS pH 7.4, 10% v/v MeCN, 0.5 μM ligand, 0-60 μM protein
sc-apCC-4-SN38-1 [4] = assay: fluorescence saturation binding; parameters: species or system synthetic construct
sc-apCC-4-LMF-1 = details: PBS pH 7.4, 10% v/v DMSO, 1 μM lumiflavin, 0-480 μM protein
[5] = molecular target: sc-apCC-4-DPH (highest-affinity DPH binder of Fig. 2; sc-apCC-4-DPH-1 or sc-apCC-4-DPH-2); assay: fluorescence intensity saturation binding; parameters: species or system synthetic construct; details: PBS pH 7.4, 10% v/v MeCN, 0.5 μM DPH, 0-60 μM protein

CCc1c2c(nc3ccc(O)cc13)-c1cc3c(c(=O)n1C2)COC(=O)[C@]3(O)CC [SN38]
Kd (sc-apCC-4-SN38-1 [1]): 7.8 ± 0.6 µM

CCN(CC)c1ccc2nc3c4ccccc4c(=O)cc-3oc2c1 [Nile red]
Kd [2]: 2.2 ± 0.2 µM
Kd (sc-apCC-4-NR-1): 2.4 ± 0.1 µM
Kd [3]: 0.11 ± 0.04 µM
Kd (sc-apCC-4-SN38-1 [4]; read-out: KD,Nile Red): ~0.2 µM

CCN(CC)c1ccc2nc3c4ccccc4c(=N)cc-3oc2c1 [Nile blue]
Kd (sc-apCC-4-SN38-1 [4]; read-out: KD,Nile blue): ~0.4 µM

Cc1cc2nc3c(=O)[nH]c(=O)nc-3n(C)c2cc1C [lumiflavin]
Kd (sc-apCC-4-LMF-1): > 50 µM

C(=CC=Cc1ccccc1)C=Cc1ccccc1 [DPH, 1,6-diphenyl-1,3,5-hexatriene]
Kd [5]: 1.2 ± 0.1 µM
Kd [2]: 1.9 ± 0.2 µM
Kd [3]: > 20 µM
